Measurements from patent US20150011466A1, “APJ Receptor Compounds” (priority 2012, published 2015).
Read-outs that look alike come from different tables or passages of the source. Where a SMILES comes first, the peptide text is derived from it. [ ]: non-standard residue; d: D form. The star is where a group is joined. Palmitoyl = CCCCCCCCCCCCCCCC(=O)*

Legend:
[1] = molecular target: T1, APJ receptor (Homo sapiens, UniProt P35414); experiment: HTRF cAMP assay, inhibition of NKH477 stimulated cAMP in Human TRex cells expressing APJ upon doxycycline induction (APJ-hTREX); format: cell-based; details: for Ranking: class combining EC50 and % histamine; for percent intrinsic activity at 0.3 µM: read-out: % IA (@ 300 nM)
T1 construct: expressed in transfected cells; host or cells: Human TRex cells (doxycycline-inducible)
T1 sequence (P35414 1-380): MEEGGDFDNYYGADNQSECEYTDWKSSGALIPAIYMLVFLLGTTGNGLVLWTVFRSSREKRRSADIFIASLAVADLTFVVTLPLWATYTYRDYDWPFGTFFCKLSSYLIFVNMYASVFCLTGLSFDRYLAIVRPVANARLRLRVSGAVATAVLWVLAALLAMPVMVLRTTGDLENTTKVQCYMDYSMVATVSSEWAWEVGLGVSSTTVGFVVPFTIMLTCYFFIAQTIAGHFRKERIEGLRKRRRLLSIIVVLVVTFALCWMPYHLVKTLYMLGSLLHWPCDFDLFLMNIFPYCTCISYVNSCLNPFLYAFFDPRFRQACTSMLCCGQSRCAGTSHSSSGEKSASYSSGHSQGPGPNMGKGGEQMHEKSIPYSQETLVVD
Outline: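 Cells stimulated with NKH477 and cAMP measured by HTRF competitive immunoassay (cryptate anti-cAMP antibody, d2-labeled cAMP). APJ-hTREX cells induced with […] doxycycline and seeded overnight at 40 k/well.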

[2] = molecular target: T2, Gi-coupled receptor APJ (Homo sapiens, UniProt P35414); experiment: HTRF cAMP assay, inhibition of NKH477 stimulated cAMP in HEK cells stably expressing APJ (APJ-h HEK 293 cells); format: cell-based; details: for inhibition of NKH477 stimulated increase in cAMP (concentration response curves, FIGS. 1A-1E): HEK cells stably expressing APJ
T2 sequence (P35414 1-380): T1 sequence (P35414 1-380)
Source text: HTRF (homogeneous time resolved fluorescence) is a technology developed by Cisbio Bioassays based on TR-FRET (time-resolved fluorescence resonance energy transfer). Cisbio Bioassays has developed a wide selection of HTRF-based assays compatible with whole cells, thereby enabling functional assays to run under more physiological conditions. The IP-One assays are competitive immunoassays using cryptate-labeled anti-IP1 monoclonal antibody and d2-labeled IP1. IP1 is a relatively stable downstream metabolite of IP3, and accumulates in cells following Gq receptor activation.
cAMP kits based on a competitive immunoassay using cryptate-labeled anti-cAMP antibody and d2-labeled cAMP were used to assay the effects of APJ compounds of the present invention. […] Cells are treated with […] doxycycline and seeded in all white 96 well plates @ 40 k/well overnight.

[3] = Histimine (% vs. 48/40)
[4] = molecular target: T3, APJ receptor (β-arrestin recruitment) (Homo sapiens, UniProt P35414); experiment: β-Arrestin signaling assay (DiscoveRx PathHunter, enzyme fragment complementation); format: cell-based; details: for β-arrestin recruitment (dose dependent increase in chemiluminescence): in words; for Emax: read-out: β-arrestin Signaling Max Response
T3 sequence (P35414 1-380): T1 sequence (P35414 1-380)
Source text: Activation of the β-Arrestin signaling pathway was monitored using the commercially available DiscoveRx PathHunter® assay. This assay employs a homogenous, non-imaging assay format called Enzyme Fragment Complementation (EFC) using β-galactosidase (β-Gal) as the functional reporter. […] EA is fused to β-Arrestin and ED is fused to the GPCR of interest. When the GPCR is activated and β-Arrestin is recruited to the receptor, ED and EA complementation occurs, restoring βGal activity which is measured using chemiluminescent PathHunter® Detection Reagent.

[5] = system: Human TRex cells not induced, do not express the APJ receptor; experiment: HTRF cAMP assay in Human TRex cells not induced (no APJ receptor); format: cell-based

| EC50 ([1]; inhibition of NKH477 stimulated cAMP, APJ-hTREX cells, read-out: APJ-hTREX EC50) | EC50 ([4]; PathHunter chemiluminescence, read-out: β-arrestin Signaling EC50) | Compound | EC50 [1] | Ranking [1] | percent intrinsic activity at 0.3 µM [1] | inhibition of NKH477 stimulated increase in cAMP (concentration response curves, FIGS. 1A-1E) [2] | Histimine (% vs. 48/40) [3] | EC50 [2] | EC50 [4] | β-arrestin recruitment (dose dependent increase in chemiluminescence) [4] | Emax [4] | inhibition of NKH477 stimulated cAMP [5] |
| --- | --- | --- | --- | --- | --- | --- | --- | --- | --- | --- | --- | --- |
|  |  | CCCCCCCCCCCCCCCC(=O)N[C@H](C(=O)N[C@H](C(=O)NCC(=O)N[C@@H](CCCNC(=N)N)C(=O)N[C@@H](CO)C(=O)N[C@@H](CO)C(=O)N[C@@H](CCC(=O)O)C(=O)N[C@H](CCCCN)C(=O)N[C@@H](CCCNC(=N)N)C(=O)N[C@@H](CCCNC(=N)N)C(=O)N[C@@H](CO)C(=O)N[C@@H](C)C(=O)N[C@@H](CC(=O)O)C(=O)N[C@H](C(=O)N[C@@H](Cc1ccccc1)C(=O)N[C@H](C(N)=O)[C@@H](C)CC)[C@@H](C)CC)C(C)C)[C@@H](C)O [Compound 70] (Palmitoyl-TVGRSSE[dK]RRSADIFI-NH2) | 52.5 nM | ***** (EC50<100 nM and % histamine<35%) | 81% | in a dose dependent manner | 29% |  |  |  |  |  |
|  |  | CCCCCCCCCCCCCCCC(=O)N[C@H](C(=O)N[C@H](C(=O)N[C@@H](Cc1ccccc1)C(=O)N[C@@H](CCCNC(=N)N)C(=O)N[C@@H](CO)C(=O)N[C@@H](CO)C(=O)N[C@@H](CCC(=O)O)C(=O)N[C@H](CCCCN)C(=O)N[C@@H](CCCNC(=N)N)C(=O)N[C@@H](CCCNC(=N)N)C(=O)N[C@@H](CO)C(=O)N[C@@H](C)C(=O)N[C@@H](CC(=O)O)C(=O)N[C@H](C(=O)N[C@@H](Cc1ccccc1)C(=O)N[C@H](C(N)=O)[C@@H](C)CC)[C@@H](C)CC)C(C)C)[C@@H](C)O [Compound 1] (Palmitoyl-TVFRSSE[dK]RRSADIFI-NH2) | 56.7 nM | ***** (EC50<100 nM and % histamine<35%) | 81% | in a dose dependent manner | 33% |  |  |  |  |  |
|  |  | CCCCCCCCCCCCCCCC(=O)N[C@H](C(=O)N[C@H](C(=O)N[C@@H](Cc1c[nH]cn1)C(=O)N[C@@H](CCCNC(=N)N)C(=O)N[C@@H](CO)C(=O)N[C@@H](CO)C(=O)N[C@@H](CCC(=O)O)C(=O)N[C@H](CCCCN)C(=O)N[C@@H](CCCNC(=N)N)C(=O)N[C@@H](CCCNC(=N)N)C(=O)N[C@@H](CO)C(=O)N[C@@H](C)C(=O)N[C@@H](CC(=O)O)C(=O)N[C@H](C(=O)N[C@@H](Cc1ccccc1)C(=O)N[C@H](C(N)=O)[C@@H](C)CC)[C@@H](C)CC)C(C)C)[C@@H](C)O [Compound 9] (Palmitoyl-TVHRSSE[dK]RRSADIFI-NH2; C-terminus assumed) | 79.6 nM | *** (EC50<100 nM and % histamine>35%) | 75% |  | 36% | 79 nM | 2260 nM | weakly engaged | 22% |  |
|  |  | CCCCCCCCCCCCCCCC(=O)N[C@H](C(=O)N[C@H](C(=O)N[C@@H](Cc1ccccc1)C(=O)N[C@@H](CCCNC(=N)N)C(=O)N[C@@H](CO)C(=O)N[C@@H](CCC(N)=O)C(=O)N[C@@H](CCC(=O)O)C(=O)N[C@H](CCCCN)C(=O)N[C@@H](CCCNC(=N)N)C(=O)N[C@@H](CCCNC(=N)N)C(=O)N[C@@H](CO)C(=O)N[C@@H](C)C(=O)N[C@@H](CC(=O)O)C(=O)N[C@H](C(=O)N[C@@H](Cc1ccccc1)C(=O)N[C@H](C(N)=O)[C@@H](C)CC)[C@@H](C)CC)C(C)C)[C@@H](C)O [Compound 24] (Palmitoyl-TVFRSQE[dK]RRSADIFI-NH2) | 42.6 nM | ***** (EC50<100 nM and % histamine<35%) | 70% | in a dose dependent manner | 22% |  |  |  |  |  |
|  |  | CSCC[C@H](NC(=O)[C@@H]1CCCN1C(=O)CNC(=O)[C@H](CCCCN)NC(=O)[C@H](Cc1c[nH]cn1)NC(=O)[C@H](CO)NC(=O)[C@H](CC(C)C)NC(=O)[C@H](CCCNC(=N)N)NC(=O)[C@@H]1CCCN1C(=O)[C@H](CCCNC(=N)N)NC(=O)[C@@H](N)CCC(N)=O)C(=O)N1CCC[C@H]1C(=O)N[C@@H](Cc1ccccc1)C(=O)O [Apelin] |  |  |  |  |  |  |  |  |  | does not inhibit |
|  |  | CCCCCCCCCCCCCCCC(=O)N[C@@H](CCC(N)=O)C(=O)N[C@H](C(=O)N[C@@H](Cc1ccccc1)C(=O)N[C@@H](CCCNC(=N)N)C(=O)N[C@@H](CO)C(=O)N[C@@H](CO)C(=O)N[C@@H](CCC(=O)O)C(=O)N[C@H](CCCCN)C(=O)N[C@@H](CCCNC(=N)N)C(=O)N[C@@H](CCCNC(=N)N)C(=O)N[C@@H](CO)C(=O)N[C@@H](C)C(=O)N[C@@H](CC(=O)O)C(=O)N[C@H](C(=O)N[C@@H](Cc1ccccc1)C(=O)N[C@H](C(N)=O)[C@@H](C)CC)[C@@H](C)CC)C(C)C [Compound 20] (Palmitoyl-QVFRSSE[dK]RRSADIFI-NH2) | 60.7 nM | ***** (EC50<100 nM and % histamine<35%) | 61% | in a dose dependent manner | 29% |  |  |  |  |  |
| 11 nM | 34.4 nM | CCCCCCCCCCCCCCCC(=O)N[C@H](C(=O)N[C@H](C(=O)N[C@@H](Cc1ccccc1)C(=O)N[C@@H](CCC(N)=O)C(=O)N[C@@H](CO)C(=O)N[C@@H](CCC(=O)O)C(=O)N[C@H](CCCCN)C(=O)N[C@@H](CCCNC(=N)N)C(=O)N[C@@H](CCCNC(=N)N)C(=O)N[C@@H](CO)C(=O)N[C@@H](C)C(=O)N[C@@H](CC(=O)O)C(=O)N[C@@H](CCC(N)=O)C(=O)N[C@@H](Cc1ccccc1)C(=O)N[C@H](C(N)=O)[C@@H](C)CC)C(C)C)[C@@H](C)O [Compound 87] (Palmitoyl-TVFQSE[dK]RRSADQFI-NH2; C-terminus assumed) |  | *** (EC50<100 nM and % histamine>35%) |  |  | 48% |  |  | weakly engaged | 47% |  |
|  |  | CCCCCCCCCCCCCCCC(=O)NCC(=O)N[C@H](C(=O)N[C@@H](Cc1ccccc1)C(=O)N[C@@H](CCCNC(=N)N)C(=O)N[C@@H](CO)C(=O)N[C@@H](CO)C(=O)N[C@@H](CCC(=O)O)C(=O)N[C@H](CCCCN)C(=O)N[C@@H](CCCNC(=N)N)C(=O)N[C@@H](CCCNC(=N)N)C(=O)N[C@@H](CO)C(=O)N[C@@H](C)C(=O)N[C@@H](CC(=O)O)C(=O)N[C@H](C(=O)N[C@@H](Cc1ccccc1)C(=O)N[C@H](C(N)=O)[C@@H](C)CC)[C@@H](C)CC)C(C)C [Compound 68] (Palmitoyl-GVFRSSE[dK]RRSADIFI-NH2) | 56.4 nM | ***** (EC50<100 nM and % histamine<35%) | 69% | in a dose dependent manner | 21% |  |  |  |  |  |
